Test results: PMC6325109, “The transcription factor STAT5 catalyzes Mannich ligation reactions yielding inhibitors of leukemic cell proliferation” (Nature Communications, 2019)
Positions count from the first letter of the chain named. One block for each molecule: values may come before it. Where no end group is shown, it is not given here. [ ]: non-standard residue; d: D form. pY = N[C@@H](Cc1ccc(OP(=O)(O)O)cc1)C(=O)O

Assays:
[1] = target: T1, MBP-STAT5b-SH2 (Homo sapiens, UniProt P51692); assay: biochemical; set-up: fluorescence polarization competition with carboxyfluorescein-labelled phosphopeptide on MBP-STAT5b-SH2
T1 sequence (P51692 589-686 limits assumed): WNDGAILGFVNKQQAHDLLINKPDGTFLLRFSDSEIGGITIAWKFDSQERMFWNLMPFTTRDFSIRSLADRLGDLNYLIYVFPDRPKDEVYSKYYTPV
Protocol: 24 sealed with optical seal, shaken for 15 min, and centrifuged. Thermal scanning (20 to 95°C at 1°C/min) was performed using a real-time PCR setup (Light Cycler, Roche Diagnostics, Mannheim, Germany) and fluorescence intensity was measured after every 0.3 s. Curve fitting, melting temperature calculation and report generation on the raw data were performed using GraphPad Prism 5 software. Fluorescence polarization assays and screening Ca. 17000 compounds and fragments from the ChemBioNet library were tested in a fluorescence polarization (FP) assay to investigate their ability to bind to STAT5b-SH2 domain by displacing the fluorophore-labeled peptide 5-carboxyfluorescein-GY (PO3H2) LSLPPW-NH2 1. Purified compounds were tested in the same assay. The peptide purity was >95% and the assays were performed at room temperature. The final concentration of buffer components used was 10 mM HEPES (pH 7.5), 1 mM EDTA, 0.1% Igepal CA-630, 50 mM NaCl, and 5% DMSO and the final concentration of protein used was at 125 nM. The protein was first added to the black 384-well plate (Corning cat.CLS3676, Sigma Aldrich, Taufkirchen, Germany) followed by test compounds and fluorophore-labeled peptide. The plates were centrifuged, and measured using Safire2 well plate reader (Tecan, Crailsheim, Germany) after 15 min incubation at room temperature. For testing secondary site binding of primary hit fragments, the same assay was conducted in the presence of 4-formylphenyl phosphate 2 as described earlier. For specificity analysis, FP assay was conducted with 100 nM GST-tagged, full length human STAT3 protein (cat. S54-54G-50, SignalChem, Richmond, BC, Canada) and 10 nM fluorophore-labeled peptides (5-carboxyfluorescein-GY (PO3H2) LPQTV-NH2). […] Ligands with such high ligand efficiency are rather found for enzymatic binding pockets than for protein–protein interaction sites and thus fragment 3 was selected for further validation. Binding of 3 to STAT5b-SH2 was confirmed using the thermofluor assay[28],[29], a thermal shift assay (TSA), as an independent biophysical assay. Binding of fragment 3 augmented the melting point of STAT5 by ΔTm of 3 °C (Supplementary Figure 1). Potential binding modes of the phosphotyrosine 2 and the fragment hit 3 were scrutinized using a homology model of STAT5b derived from the crystal structure of STAT5a (PDB:1Y1U [10.2210/pdb1Y1U/pdb]) for molecular docking (Fig. 1b, c)[30]. The phosphotyrosine binding site in the STAT5-SH2 domain is shallow compared with the deeper binding pockets of PTP[31],[32], coordinating phenyl phosphate 2 by only two amino-acid residues, Arg618 and Ser622. As a result, the benzene ring of 2 is not buried in a cavity like in the case of PTPs but rather exposed to the solvent at the protein surface.

[2] = target: T1, MBP-STAT5b-SH2; assay: fluorescence polarization competition with peptide […]; format: binding; details: […] MOPS pH […], room temperature; competitive
[3] = target: T1, MBP-STAT5b-SH2; assay: as above; format: binding; details: […] MOPS pH […], room temperature; competitive; remark: listed apart in the source
[4] = target: T2, MBP-STAT5b-SH2 (Homo sapiens, UniProt P51692, N642A); assay: as above; format: binding; details: […] MOPS pH […], room temperature; competitive
T2 sequence (P51692 589-686 N642A limits assumed): T1 sequence (P51692 589-686 limits assumed) with N54A

[5] = target: T3, STAT5b-SH2 domain fused to maltose-binding protein (MBP) (human, UniProt P51692 589-686); assay: fluorescence polarisation; MBP-STAT5b-SH2 with peptide 1 (10 nM), 50 mM MOPS buffer pH 7.4, room temperature, 20 µl; details: both partners purified
T3 construct: STAT5b, SH2 domain; also called MBP-STAT5b-SH2; MBP-STAT5b; source: recombinantly expressed
T3 sequence (looked up): T1 sequence (P51692 589-686 limits assumed)

[6] = target: T4, MBP-STAT5b-SH2 N642A (human, UniProt P51692 589-686, N642A); assay: as above; details: both partners purified
T4 construct: STAT5b, SH2 domain with N642A; Same construct as m1 apart from the mutation; also called STAT5b-N642A; mutant STAT5b-N642A; source: generated by site-directed mutagenesis
T4 sequence (looked up): T1 sequence (P51692 589-686 limits assumed) with N54A

Molecule: O=Cc1ccc(OP(=O)(O)O)cc1 [compound 2, 4-formylphenyl phosphate]
Ki [1]: > 2500 µM

Molecule: O=C(Cn1cnnn1)Nc1nonc1C(=O)O [compound 5, 4-(2-(1H-tetrazol-1-yl)-acetamido)-1,2,5-oxadiazole-3-carboxylic acid]
Ki [1]: > 2500 µM

Molecule: O=C(O)c1nonc1NCn1nnnc1-c1ccccc1 [compound 11, 4-(5-phenyl-tetrazol-1-yl-methylamino)-furazane-3-carboxylate]
Ki [2]: 1.4 µM

Molecule: O=C(O)c1nonc1NCn1nnnc1-c1cccc(C(F)(F)F)c1 [compound 12, 5-(3-trifluoromethyl-phenyl)-12]
Ki [2]: 0.9 µM

Molecule: c1nnn[nH]1 [compound 25, 1H-tetrazole]
Ki [1]: > 2500 µM

Molecule: c1ccc(Cc2nn[nH]n2)cc1 [compound 26, benzyl-tetrazole]
Ki [1]: > 2500 µM

More lines, now with the values ahead:

Ki [2]: 122 ± 25 µM
Molecule: O=C(O)c1nonc1NCn1cccn1 [compound 8, pyrazol-1-yl 8]

IC50 [3]: 1.5 µM
IC50 [4]: 30 µM
Molecule: O=C(O)c1nonc1NCn1cnnn1 [compound 10, 4-(Tetrazolyl-1-methylamino)-furazan-3-carboxylic acid]

Ki [2]: 0.6 µM
Molecule: O=C(O)c1nonc1NCn1nnnc1-c1cccc(F)c1 [compound 13, 5-(3-fluorophenyl) 13]

Kd [5]: 0.055 µM
Kd [6]: ~5 µM
B1: carboxyfluoresceine-labeled phosphotyrosine octapeptide 1 (peptide)
chain: G[pY]LSLPPW
modifications: not fully specified (N-terminus); also: carboxyfluorescein label, place not given here
